The test system of assay [1] is NCI-H460-taxol resistant tumor xenografts. The assay is described as follows: Growth of established NCI-H460-taxol resistant xenografts (Example 4). It is filed as in vivo, athymic nude mice. How it is done:
To investigate whether AMG 900-induced suppression of aurora kinase activity inhibits cell proliferation, the antitumor efficacy of AMG 900 was evaluated in vivo against NCI-H460-taxol resistant tumor xenografts in athymic nude mice. Mice were dosed PO with AMG 900 (BID) either intermittently or continuously. Mice were dosed IP with paclitaxel (taxol) 5 days/week. An internal Amgen compound was used as a positive control in this study (data not shown). Tumors were measured twice per week. Treatment began on day 12 when the tumors were established. All groups were provided nutritional supplements on a daily basis throughout the study to maintain body weight. AMG 900 (free base) was formulated into suspension to concentrations of 1.5 and 0.3 mg/mL. […] The duration of the dosing phase for AMG 900 was three weeks, and two weeks for the taxol group. The tumors were measured with a digital caliper and the mice were weighed twice per week. Tumor volumes were calculated as follows: […] Tumor inhibition was calculated as follows: […] FIG. 5 illustrates the effects of AMG 900 and Taxol treatment on the growth of established H460-taxol resistant tumors. […] Tumors were measured twice per week. Treatment began 12 days after tumor implantation (arrow) when tumors were approximately 170 mm^3. Mice were dosed PO or IP once or twice daily for 3 weeks. Data represent mean ±SE for each group. *P values (not shown) correspond to statistical difference between groups treated with vehicle and AMG 900 or Taxol analyzed with repeated measure Sheffe's ANOVA over time using […]. The scheduled days listed in the legend represent days/ week. All groups were provided nutritional supplements throughout the study.

Assay [2] has as its system HCT15. Nature of the assay: Cellular EC50, additional cell lines (Table 6-B). The note with it: Homo sapiens, HCT-15, Colon, P-gp+. The assay is classed as cell-based, human. How it is done:
(§1) All high-content cell assays were performed on an ArrayScan VTi HCS Reader (Cellomics). Tumor cell lines were treated with AMG 900, AZD1152, MK-0457, or PHA-739358 (concentration range varied based on potency). The cells were prepared for intracellular staining with an anti-p-histone H3 Ser^10 antibody as previously described (1). Detection was performed with an anti-rabbit IgG-alexa-568 antibody and DAPI. The cellular levels of p-histone H3 were analyzed using Target Activation V2 algorithm (Cellomics) to determine the percentage of positive cells. For the imaging assays, the concentration-response curves and corresponding IC50 and EC50 values were calculated using the percentage of cells affected versus the DMSO control.
(§2) Tumor cells were treated with AMG 900, AZD1152, MK-0457, or PHA-739358 (range concentration varied based on potency) for 24 hours and processed for cell-cycle analysis (DNA staining only) as previously described (1). Cells were analyzed on a LSRII flow cytometer using BD FACS Diva software. The concentration-response curves and corresponding EC50 values were calculated using the percentage of cells with ≧4N DNA content versus the DMSO control.

For assay [3], the system named is MCF-7. Nature of the assay: Cellular EC50, additional cell lines (Table 6-B). The note with it: Homo sapiens, MCF7; MCF-7, Breast. It is filed as cell-based, human. How it is done:
as §1, §2

The test system of assay [4] is Jurkat. Nature of the assay: Multiparameter cell cycle DNA content assay (flow cytometry). The note with it: Homo sapiens, T cell leukemia, 48 hours without compound withdrawal, read-out: EC50 (+4N DNA content endpoint). The assay is classed as cell-based. How it is done: (§3) Tumor cells were seeded in a 300 μL deep 96-well plate in 150 μL of appropriate complete media at a density of 100,000 cells/well. The cells were treated with AMG 900 (10-point dose range 0.156 to 0.0003 μM) with a final DMSO concentration of 0.2% in media. Two hours prior to harvest time, the cells were pulsed with BrdU at the final concentration of 1:100 in media. After 48 hours, 100 μL of media was removed from each well with a multi-well pipetter. Then the cells were transferred to PCR tube strips in 200 μL of media. The cells were centrifuged at 2000 rpm at 18° C. for 4 minutes and the supernatant was aspirated. The cells were then fixed in 200 μL of ice cold 90% methanol and stored at −20° C. for at least 24 hours before antibody and DNA staining. Fixed cells were centrifuged at 2000 rpm for 4 minutes to remove 90% methanol. Cells were washed with 200 μL of wash buffer and then treated with 100 μL acid buffer at room temperature for 1 hour in the dark. Cells were washed twice with 200 μL wash buffer (until pH was 7.0, confirmed with pH paper). Cells were incubated with an anti-BrdU-Alexa 647 (3 μg/mL) and anti-Caspase 3-FITC (20 μ/well) antibody cocktail in wash buffer for 2 hours at room temperature in the dark. Stained cells were centrifuged and washed with 200 μL of wash buffer. Cells were counterstained with 200 μL of propidium iodide (PI) overnight at 4° C. in the dark. Data was acquired and analyzed by flow cytometer (LSRII). A threshold gate was applied according to DNA content, BrdU, and Caspase-3 positive/negative populations based on DMSO control and low/high drug-treated groups. The data was represented as a percentage of SubG1 DNA content, 4N+ DNA content, BrdU, and Caspase-3 cleavage positive populations. The concentration-response curves and EC50 values were calculated using a 4-parameter equation.

The subject of assay [5] is U266-B1. Described as above. The assay is classed as cell-based. Conditions: Homo sapiens; U266-B1, Multiple Myeloma; 48 hours without compound withdrawal; read-out: EC50 (+4N DNA content endpoint). How it is done:
as §3

For assay [6], the system named is MOLT-4. Described as above. It is filed as cell-based. The note with it: Homo sapiens; MOLT-4, T cell leukemia; 48 hours without compound withdrawal; read-out: EC50 (+4N DNA content endpoint). How it is done: as §3
Assay [7] deals with HL-60. The assay is described as above. It is filed as cell-based. The note with it: Homo sapiens; HL-60, Promyelocytic leukemia; 48 hours without compound withdrawal; read-out: EC50 (+4N DNA content endpoint). How it is done:
as §3

Assay [8] concerns RPMI-8226. Described as above. The assay is classed as cell-based. Conditions: Homo sapiens; RPMI-8226, Multiple Myeloma; 48 hours without compound withdrawal; read-out: EC50 (+4N DNA content endpoint). How it is done:
as §3

The subject of assay [9] is K562. The assay is described as above. It is filed as cell-based. The note with it: Homo sapiens; K562, Chronic myeloid leukemia; 48 hours without compound withdrawal; read-out: EC50 (+4N DNA content endpoint). How it is done:
as §3

Where [10] appears, read: 3mpk PO BID 7 days/week × 3 wks.
Where [11] appears, read: 15mpk PO BID 2 days ON/5 day OFF/week × 3 wks.

SMILES strings stand for the structures. pEC50: −log10 of the molar value. “And” between values parts separate entries of the source, which are not always exact repeats. Identical values can stand only once.

The values below come from US20120028917A1, “Use Of N-(4-((3-(2-Amino-4-Pyrimidinyl)-2-Pyridinyl)Oxy)Phenyl)-4-(4-Methyl-2-Thienyl)-1-Phthalazinamine In The Treatment Of Antimitotic Agent Resistant Cancer” (Amgen Inc., priority 2009, published 2012).

As for `Cc1csc(-c2nnc(Nc3ccc(Oc4ncccc4-c4ccnc(N)n4)cc3)c3ccccc23)c1` [AMG 900, N-(4-((3-(2-amino-4-pyrimidinyl)-2-pyridinyl)oxy)phenyl)-4-(4-methyl-2-thienyl)-1-phthalazinamine], the “% Inhibition (tumor growth)” value in assay [1] (setting [10]) is 60% and 60.4%; in [1] (setting [11]), 66% and 65.7%. The “Tumor volume, Mean” value in [1] (setting [10]) was determined as 771 mm^3; in assay [1] (setting [11]), 689 mm^3. Besides, the “Tumor volume, Median” value in [1] (setting [10]) was 715.6 mm^3; in assay [1] (setting [11]) it was 612.5 mm^3. The negative-log EC50 (pEC50) in [2] was 8.70; in assay [3], 9.00; in assay [4], 9.00; in [5], 8.70; in assay [6] it was 8.70; in assay [7], 8.70. In addition, the results for the pEC50 in [8] and in assay [9] were 8.70 and 9.00, respectively.
